Laboratory results: patent publication US20100183754A1, “Extract and compound for blood pressure regulation” (Taipei Medical University, priority 2009, published 2010)

What was measured:
ACE = ACE (Homo sapiens, UniProt P12821); experiment: In vitro ACE inhibiting assay; type: biochemical; details: for ACE inhibiting activity (FIG. 11): purified in example 5, various concentrations
Excerpt: Wherein, the data of TC-1 to TC-4 are obtained from the whole plant extracts of Vitis thunbergii var. taiwaniana cultured by various plant growth substrates, respectively.
Moreover, the hot water extract of the Vitis thunbergii var. taiwaniana tea powder obtained in example 2 is used to perform the same ACE inhibiting assay, as shown in FIG. 6. […] Method A: culturing the tissue culture plantlet for 30 days, replacing the old culture medium with new culture medium, and then culturing the plantlet for another 60 days; in which the plantlet were cultured for 90 days. Method B: culturing the tissue culture plantlet for 30 days, directly adding the new culture medium onto the old culture medium, and then culturing for another 60 days; in which the plantlet were cultured for 90 days.
Various concentration of (+)-vitisin A and ampelopsin C purified in example 5 were used to perform ACE inhibiting activity assay.

[1] = tested on: spontaneous hypertensive rats (SHRs); experiment: 24-hour blood pressure test of SHRs after single oral administration; type: in vivo, rat; details: single oral administration 10 mg/kg, versus control fed distilled water
Method: The Vitis thunbergii var. taiwaniana extracts of the present invention were used in the in vivo blood pressure regulation assay. The present embodiment was performed on 24 heads of five- to six-week old male spontaneous hypertensive rats (SHRs). The rats were housed for 7 weeks and then used for the assay while they were about twelve- to thirteen-week old. The SHRs were randomly divided into experimental group (12 heads of SHRs) and control group (12 heads of SHRs). The rats of the experimental group were fed with the Vitis thunbergii var. taiwaniana extract obtained in example 1, and the rats of the control group were fed with distilled water for instead. After oral administration by feeding tube, the blood pressure of all SHRs was measured for a certain time interval.
Similarly, the hot water extract of the roots and stems of the Vitis thunbergii var. taiwaniana cultivated in field for 5 to 6 months, which was transferred from tissue culture plantlets, was used in a 24-hour blood pressure test, as shown in FIG. 7 (the rats of the control group were fed with distilled water).
Moreover, the blood pressure of the SHRs fed with (+)-vitisin A purified in example 5 was measured during 24 hours after single oral administration.

ACE, sequence (P12821 30-1306, species assumed): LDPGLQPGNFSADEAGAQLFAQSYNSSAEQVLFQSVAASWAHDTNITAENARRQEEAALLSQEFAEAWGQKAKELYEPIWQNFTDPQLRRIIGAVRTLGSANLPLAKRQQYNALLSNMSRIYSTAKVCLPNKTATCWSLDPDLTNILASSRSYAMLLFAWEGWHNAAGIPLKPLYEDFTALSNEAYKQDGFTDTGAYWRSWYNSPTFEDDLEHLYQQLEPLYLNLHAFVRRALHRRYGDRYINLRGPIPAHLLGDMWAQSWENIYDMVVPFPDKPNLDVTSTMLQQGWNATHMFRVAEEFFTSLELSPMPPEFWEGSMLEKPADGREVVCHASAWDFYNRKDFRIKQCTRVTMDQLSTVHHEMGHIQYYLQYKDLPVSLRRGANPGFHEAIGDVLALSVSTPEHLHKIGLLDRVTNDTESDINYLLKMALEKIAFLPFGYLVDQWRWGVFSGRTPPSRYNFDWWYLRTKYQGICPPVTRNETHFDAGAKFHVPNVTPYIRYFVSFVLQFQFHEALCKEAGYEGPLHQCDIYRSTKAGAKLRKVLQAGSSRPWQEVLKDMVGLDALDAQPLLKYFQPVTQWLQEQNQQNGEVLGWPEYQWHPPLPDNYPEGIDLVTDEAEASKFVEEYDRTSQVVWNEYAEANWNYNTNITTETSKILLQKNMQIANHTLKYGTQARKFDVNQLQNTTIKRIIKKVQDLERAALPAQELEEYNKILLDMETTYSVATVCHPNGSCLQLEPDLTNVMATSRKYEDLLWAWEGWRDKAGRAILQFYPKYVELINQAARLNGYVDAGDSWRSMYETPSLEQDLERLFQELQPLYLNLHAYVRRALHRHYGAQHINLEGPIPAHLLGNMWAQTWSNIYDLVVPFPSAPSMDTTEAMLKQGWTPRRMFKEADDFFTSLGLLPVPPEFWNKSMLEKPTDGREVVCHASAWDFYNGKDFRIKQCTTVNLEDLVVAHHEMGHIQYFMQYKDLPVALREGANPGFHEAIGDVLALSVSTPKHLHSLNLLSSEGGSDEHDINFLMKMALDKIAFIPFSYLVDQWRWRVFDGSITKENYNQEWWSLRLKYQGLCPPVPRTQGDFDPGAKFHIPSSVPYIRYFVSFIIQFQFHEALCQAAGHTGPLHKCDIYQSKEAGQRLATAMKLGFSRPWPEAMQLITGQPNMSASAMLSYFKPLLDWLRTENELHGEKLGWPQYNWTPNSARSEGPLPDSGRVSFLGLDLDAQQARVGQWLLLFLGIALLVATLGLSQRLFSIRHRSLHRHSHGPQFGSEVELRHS

| SMILES | IC50 (ACE; purified in example 5, FIG. 11) [µM] | ACE inhibiting activity (FIG. 11) (ACE) | blood pressure of SHRs in the period of 24 hours (FIG. 12) [1] |
| --- | --- | --- | --- |
| Oc1ccc([C@H]2c3c(O)cc4c5c3[C@@H]([C@H](c3ccc(O)cc3)c3c(O)cc(O)cc3[C@H]5[C@H](c3ccc(O)cc3)O4)[C@@H]2c2cc(O)cc(O)c2)cc1 [ampelopsin C] | 18.1 | obviously have ACE inhibiting activity |  |
| Oc1ccc([C@H]2c3c(O)cc(O)cc3[C@H]3c4c(cc(O)cc4[C@@H]2c2cc(/C=C/c4cc(O)cc5c4[C@H](c4cc(O)cc(O)c4)[C@@H](c4ccc(O)cc4)O5)ccc2O)O[C@@H]3c2ccc(O)cc2)cc1 [(+)-vitisin A] |  | obviously have ACE inhibiting activity | decreases significantly |
